# Like-named read-outs stand apart in the source and are kept apart here.
# Experiments:
# [1] = long-term study; cited from earlier work
# [2] = test system: patients with endometriosis; details: for Changes in average NRS for pelvic pain (regardless of menstruation) between the pre-treatment period and the time of the final assessment during treatment: oral once a day for 12 weeks
# Experimental: Clinical Trial 1 in Patients with Endometriosis (Double-Blind Parallel-Group Comparison Study)
# To 107 patients with endometriosis, Compound 2 at a dose of 50 mg (29 patients), 100 mg (26 patients) or 200 mg (28 patients) or a placebo (24 patients) was orally administered after breakfast once a day for 12 weeks. These groups are hereinafter referred to as a 50-mg administration group, a 100-mg administration group, a 200-mg administration group, and a placebo group. The administration was started from the second to fifth days of menstruation.
# As evaluation scales for safety, for example, the occurrence of an adverse event, the occurrence of a side effect, and vaginal bleeding were evaluated.
# [3] = test system: patients with endometriosis; details: for Changes in average NRS for pelvic pain (regardless of menstruation) between the pre-treatment period and the time of final assessment during the treatment period: oral once a day for 8 weeks
# Experimental: Clinical Trial 2 in Patients with Endometriosis (Randomized Non Blind Parallel-Group Comparison Study)
# To 21 patients with endometriosis, Compound 2 was administered orally at a dose of 75 mg (11 patients) or 150 mg (10 patients) after breakfast once a day for 8 weeks. These groups are hereinafter referred to as a 75-mg administration group and a 150-mg administration group. The administration was started from the second to fifth days of menstruation.
molecule,measurement,setting,value
"C[C@]12CCC3=C4CCC(=O)C=C4CC[C@H]3[C@@H]1CC[C@@]2(O)CC#N [Dienogest, dienogest]",Incidence of atypical genital bleeding as a side effect,[1],71.9%
"3-[2-fluoro-5-(2,3-difluoro-6-methoxybenzyloxy)-4-methoxyphenyl]-2,4-dioxo-1,2,3,4-tetrahydrothieno[3,4-d]pyrimidine-5-carboxylic acid choline salt [Compound 2]",Percentage of patients who had menstruation during treatment (Yes),[2]; 50 mg,72.4%
same,Percentage of patients who had no menstruation during treatment (No),[2]; 50 mg,27.6%
same,Percentage of patients who had menstruation during treatment (Yes),[2]; 100 mg,26.9%
same,Percentage of patients who had no menstruation during treatment (No),[2]; 100 mg,73.1%
same,Percentage of patients who had menstruation during treatment (Yes),[2]; 200 mg,3.6%
same,Percentage of patients who had no menstruation during treatment (No),[2]; 200 mg,96.4%
same,"Number of cases where side effects associated with hypoestrogenism (hot flashes, headache, dizziness, hyperhidrosis) were developed",[2]; 50-mg administration group (29 patients),9
same,Changes in average NRS for pelvic pain (regardless of menstruation) between the pre-treatment period and the time of the final assessment during treatment,[2]; 50-mg administration group,−1.13
same,E2 concentrations during treatment,[2]; 100-mg administration group,lower than 20 pg/mL
same,"Number of cases where side effects associated with hypoestrogenism (hot flashes, headache, dizziness, hyperhidrosis) were developed",[2]; 100-mg administration group (26 patients),12
same,Changes in average NRS for pelvic pain (regardless of menstruation) between the pre-treatment period and the time of the final assessment during treatment,[2]; 100-mg administration group,−1.27
same,E2 concentrations during treatment,[2]; 200-mg administration group,lower than 20 pg/mL
same,"Number of cases where side effects associated with hypoestrogenism (hot flashes, headache, dizziness, hyperhidrosis) were developed",[2]; 200-mg administration group (28 patients),28
same,Changes in average NRS for pelvic pain (regardless of menstruation) between the pre-treatment period and the time of the final assessment during treatment,[2]; 200-mg administration group,−1.33
same,E2 secretion during treatment,"[2]; all groups (50, 100, 200 mg)",Suppression of E2 secretion was observed
same,Improvement of average NRS for pelvic pain as compared to the placebo group,"[2]; all groups (50, 100, 200 mg) vs placebo",Significant improvements
same,"Temporal pain, observations by others, use rate of an analgesic agent, sizes of an ovarian chocolate cyst and the uterus, as compared to the placebo group","[2]; groups administered 50, 100, 200 mg vs placebo",improved
same,Occurrence of side effects associated with hypoestrogenism,[2]; groups with E2 concentration of 20 pg/mL and/or more during treatment,28.2%
same,Occurrence of side effects associated with hypoestrogenism,[2]; groups with E2 concentration of less than 20 pg/mL during treatment,54.8%
same,Changes in average NRS for pelvic pain (regardless of menstruation) between the pre-treatment period and the time of final assessment during the treatment period,[3]; 75-mg administration group,−0.94
same,Median E2 concentrations during treatment,"[3]; 75-mg administration group, week 4",35 pg/mL
same,Median E2 concentrations during treatment,"[3]; 75-mg administration group, week 8",24 pg/mL
same,Changes in average NRS for pelvic pain (regardless of menstruation) between the pre-treatment period and the time of final assessment during the treatment period,[3]; 150-mg administration group,−1.68
same,Median E2 concentrations during treatment,"[3]; 150-mg administration group, week 4",10 pg/mL
same,Median E2 concentrations during treatment,"[3]; 150-mg administration group, week 8",10 pg/mL
same,Improvement of average NRS for pelvic pain,"[3]; all groups (75, 150 mg)",tendency of improvement

# From patent publication US11382914B2, “Usage and dosage of therapeutic agents for endometriosis” (KISSEI PHARMACEUTICAL CO., LTD., priority 2016, dated 2022)
